Test results: US10945932B2, “Prebiotic oral care compositions containing carboxylic acids” (COLGATE-PALMOLIVE COMPANY, priority 2013, dated 2021)

Key:
Type in all cases: cell-based
Actinomyces naeslundii = assay: Metabolic activity, Biolog phenotype microarray; details: A naeslundii
Protocol: (§1) The extent of metabolic activity of the tested bacteria in the presence of the above-mentioned acids after 24 hours and 48 hours was investigated through a high throughput phenotype microarray system (PM) for microbial cells (Biolog Inc.). Each PM can contain up to 95 different biochemical compounds (e.g. organic acids) that may act as substrates for bacteria as well as one negative control, not containing the substrates. Microarray plates were used in which the different wells of each plate were pre-loaded (by the manufacturer, Biolog Inc.) with different organic acids to be tested. Each bacterial species was tested using a separate microarray plate. Thus, a single bacterial species was tested with a variety of organic acids on each particular plate. The microarrays are based on redox technology, using cell respiration as a universal reporter. […] The observation of this color change indicates which of the substrates improve the metabolic activity and health of the cells.
(§2) Each bacterial species was collected from blood agar plates (incubated for 48 hours anaerobically at 37° C.) and transferred to an IF-0 Base inoculation fluid (Biolog Inc.), which is a nutritionally poor medium. […] A 1:5 dilution of this suspension was prepared by mixing 3 mL of the 42% transmittance cell suspension with 15 mL of an inoculation fluid (which inoculation fluid was formed by mixing 11.6 mL sterile water, 62.5 mL IF-0 base inoculation fluid and 0.9 mL of the tetrazolium dye “Biolog Redox Dye mix D”), resulting in a final cell density which was equal to 85% transmittance using a BioRad SmartSpec 3000 Photometer. For each of the acids tested, the microarray plate (obtained from the supplier (Biolog Inc.) with acid already present in the relevant wells in powder form) was directly inoculated with 100 μL/well of this 85% transmittance cell suspension.
(§3) All plates were incubated in an anaerobic atmosphere at 37° C. Color changes were measured spectrophotometrically at 492 nm (Thermo Scientific Multiskan Ascent) at 24 hrs and 48 hrs using the same plate at both time points.
(§4) The controls were also carried out three times, as above.

Actinomyces viscosus = assay: Metabolic activity, Biolog phenotype microarray; details: A viscosus
Protocol: as §1, §2, §3, §4

[1] = test system: Aggregatibacter actinomycetemcomitans; assay: Metabolic activity, Biolog phenotype microarray; details: A actinomycetemcomitans
Protocol: as §1, §2, §3, §4

Capnocytophaga sputigena = assay: Metabolic activity, Biolog phenotype microarray; details: C sputigena
Protocol: as §1, §2, §3, §4

Fusobacterium nucleatum = assay: Metabolic activity, Biolog phenotype microarray; details: F nucleatum
Protocol: as §1, §2, §3, §4

Porphyromonas gingivalis = assay: Metabolic activity, Biolog phenotype microarray; details: P gingivalis
Protocol: as §1, §2, §3, §4

Prevotella intermedia = assay: Metabolic activity, Biolog phenotype microarray; details: P intermedia
Protocol: as §1, §2, §3, §4

Streptococcus gordonii = assay: Metabolic activity, Biolog phenotype microarray; details: S gordonii
Protocol: as §1, §2, §3, §4

Streptococcus mitis = assay: Metabolic activity, Biolog phenotype microarray; details: S mitis
Protocol: as §1, §2, §3, §4

Streptococcus mutans = assay: Metabolic activity, Biolog phenotype microarray; details: S mutans
Protocol: as §1, §2, §3, §4

Streptococcus salivarius = assay: Metabolic activity, Biolog phenotype microarray; details: S salivarius
Protocol: as §1, §2, §3, §4

Streptococcus sanguinis = assay: Metabolic activity, Biolog phenotype microarray; details: S sanguinis
Protocol: as §1, §2, §3, §4

Streptococcus sobrinus = assay: Metabolic activity, Biolog phenotype microarray; details: S sobrinus
Protocol: as §1, §2, §3, §4

Tannerella forsythia = assay: Metabolic activity, Biolog phenotype microarray; details: T forsythia
Protocol: as §1, §2, §3, §4

Veillonella parvula = assay: Metabolic activity, Biolog phenotype microarray; details: V parvula
Protocol: as §1, §2, §3, §4

[2] = test system: beneficial oral bacteria and pathogenic oral bacteria; assay: Metabolic activity, prebiotic effect over the whole panel; details: for prebiotic effect (metabolic activity): 24 hrs, threshold value of 2
Protocol: as §1, §2, §3, §4

Row | Compound | metabolic activity, OD at 492 nm divided by OD of control (control = 1) (Actinomyces naeslundii; 24 hrs) | metabolic activity, OD at 492 nm divided by OD of control (control = 1) (Actinomyces naeslundii; 48 hrs) | metabolic activity, OD at 492 nm divided by OD of control (control = 1) (Actinomyces viscosus; 24 hrs) | metabolic activity, OD at 492 nm divided by OD of control (control = 1) (Actinomyces viscosus; 48 hrs) | metabolic activity, OD at 492 nm divided by OD of control (control = 1) ([1]; 24 hrs) | metabolic activity, OD at 492 nm divided by OD of control (control = 1) ([1]; 48 hrs) | metabolic activity, OD at 492 nm divided by OD of control (control = 1) (Capnocytophaga sputigena; 24 hrs) | metabolic activity, OD at 492 nm divided by OD of control (control = 1) (Capnocytophaga sputigena; 48 hrs) | metabolic activity, OD at 492 nm divided by OD of control (control = 1) (Fusobacterium nucleatum; 24 hrs) | metabolic activity, OD at 492 nm divided by OD of control (control = 1) (Fusobacterium nucleatum; 48 hrs) | metabolic activity, OD at 492 nm divided by OD of control (control = 1) (Porphyromonas gingivalis; 24 hrs) | metabolic activity, OD at 492 nm divided by OD of control (control = 1) (Porphyromonas gingivalis; 48 hrs) | metabolic activity, OD at 492 nm divided by OD of control (control = 1) (Prevotella intermedia; 24 hrs) | metabolic activity, OD at 492 nm divided by OD of control (control = 1) (Prevotella intermedia; 48 hrs) | metabolic activity, OD at 492 nm divided by OD of control (control = 1) (Streptococcus gordonii; 24 hrs) | metabolic activity, OD at 492 nm divided by OD of control (control = 1) (Streptococcus gordonii; 48 hrs) | metabolic activity, OD at 492 nm divided by OD of control (control = 1) (Streptococcus mitis; 24 hrs) | metabolic activity, OD at 492 nm divided by OD of control (control = 1) (Streptococcus mitis; 48 hrs) | metabolic activity, OD at 492 nm divided by OD of control (control = 1) (Streptococcus mutans; 24 hrs) | metabolic activity, OD at 492 nm divided by OD of control (control = 1) (Streptococcus mutans; 48 hrs) | also measured
1 | C[C@H](O)C(=O)O [L-lactic acid] | 1.6747 | 1.8440 | 1.5404 | 1.7915 | 1.7850 | 2.2055 | 1.4435 | 1.1474 | 0.8008 | 0.7884 | 0.7480 | 0.7325 | 0.9628 | 0.9344 | 0.7156 | 0.6821 | 1.0230 | 0.9098 | 0.8885 | 0.8138 | metabolic activity, OD at 492 nm divided by OD of control (control = 1) (Streptococcus salivarius; 24 hrs): 0.9183; metabolic activity, OD at 492 nm divided by OD of control (control = 1) (Streptococcus salivarius; 48 hrs): 0.8317; metabolic activity, OD at 492 nm divided by OD of control (control = 1) (Streptococcus sanguinis; 24 hrs): 0.9076; metabolic activity, OD at 492 nm divided by OD of control (control = 1) (Streptococcus sanguinis; 48 hrs): 0.8849; metabolic activity, OD at 492 nm divided by OD of control (control = 1) (Streptococcus sobrinus; 24 hrs): 0.8282; metabolic activity, OD at 492 nm divided by OD of control (control = 1) (Streptococcus sobrinus; 48 hrs): 0.7747; metabolic activity, OD at 492 nm divided by OD of control (control = 1) (Tannerella forsythia; 24 hrs): 0.8509; metabolic activity, OD at 492 nm divided by OD of control (control = 1) (Tannerella forsythia; 48 hrs): 0.8314; metabolic activity, OD at 492 nm divided by OD of control (control = 1) (Veillonella parvula; 24 hrs): 3.4930; metabolic activity, OD at 492 nm divided by OD of control (control = 1) (Veillonella parvula; 48 hrs): 3.0003; prebiotic effect (metabolic activity) [2]: exhibited prebiotic effects; speed of metabolism by beneficial versus pathogenic bacteria ([2]; value of 2 reached at 24 hrs for the beneficial but not the pathogenic bacteria): metabolized faster by the beneficial bacteria than by the pathogenic bacteria
2 | O=C(O)C[C@H](O)C(=O)O [L-malic acid] | 0.9796 | 0.9086 | 0.9803 | 1.0090 | 1.6257 | 1.9196 | 0.8764 | 0.8870 | 0.8813 | 0.8215 | 0.8367 | 0.8279 | 0.9958 | 1.0146 | 0.9161 | 0.8652 | 0.9743 | 0.8207 | 0.9627 | 0.8760 | metabolic activity, OD at 492 nm divided by OD of control (control = 1) (Streptococcus salivarius; 24 hrs): 0.9740; metabolic activity, OD at 492 nm divided by OD of control (control = 1) (Streptococcus salivarius; 48 hrs): 0.9426; metabolic activity, OD at 492 nm divided by OD of control (control = 1) (Streptococcus sanguinis; 24 hrs): 0.8788; metabolic activity, OD at 492 nm divided by OD of control (control = 1) (Streptococcus sanguinis; 48 hrs): 0.9018; metabolic activity, OD at 492 nm divided by OD of control (control = 1) (Streptococcus sobrinus; 24 hrs): 1.0506; metabolic activity, OD at 492 nm divided by OD of control (control = 1) (Streptococcus sobrinus; 48 hrs): 0.9898; metabolic activity, OD at 492 nm divided by OD of control (control = 1) (Tannerella forsythia; 24 hrs): 0.9252; metabolic activity, OD at 492 nm divided by OD of control (control = 1) (Tannerella forsythia; 48 hrs): 0.9462; metabolic activity, OD at 492 nm divided by OD of control (control = 1) (Veillonella parvula; 24 hrs): 2.0256; metabolic activity, OD at 492 nm divided by OD of control (control = 1) (Veillonella parvula; 48 hrs): 1.5012; prebiotic effect (metabolic activity) [2]: exhibited prebiotic effects
3 | COC(=O)CCC(=O)O [Mono methyl succinate, mono methyl succinate] | 0.8880 | 0.8882 | 0.9911 | 1.0314 | 0.9321 | 1.0787 | 0.8328 | 0.9842 | 0.8349 | 0.7615 | 0.7502 | 0.6747 | 1.0197 | 1.0603 | 0.8102 | 0.7556 | 1.0231 | 0.9293 | 0.9482 | 0.8864 | metabolic activity, OD at 492 nm divided by OD of control (control = 1) (Streptococcus salivarius; 24 hrs): 0.9553; metabolic activity, OD at 492 nm divided by OD of control (control = 1) (Streptococcus salivarius; 48 hrs): 0.8641; metabolic activity, OD at 492 nm divided by OD of control (control = 1) (Streptococcus sanguinis; 24 hrs): 0.8806; metabolic activity, OD at 492 nm divided by OD of control (control = 1) (Streptococcus sanguinis; 48 hrs): 0.8453; metabolic activity, OD at 492 nm divided by OD of control (control = 1) (Streptococcus sobrinus; 24 hrs): 0.9731; metabolic activity, OD at 492 nm divided by OD of control (control = 1) (Streptococcus sobrinus; 48 hrs): 0.9118; metabolic activity, OD at 492 nm divided by OD of control (control = 1) (Tannerella forsythia; 24 hrs): 0.8922; metabolic activity, OD at 492 nm divided by OD of control (control = 1) (Tannerella forsythia; 48 hrs): 0.8775; metabolic activity, OD at 492 nm divided by OD of control (control = 1) (Veillonella parvula; 24 hrs): 2.0008; metabolic activity, OD at 492 nm divided by OD of control (control = 1) (Veillonella parvula; 48 hrs): 2.0023
